Data taken from US20230257383A1, “COMPOUND SERVING AS BTK INHIBITOR, PREPARATION METHOD THEREFOR, AND USE THEREOF” (CHENGDU HYPERWAY PHARMACEUTICALS CO., LTD., priority 2020, published 2023).
pIC50: −log10 of the molar value.

Tests used:
[1] = Liver microsome metabolic stability test (rat); type: in vitro ADME; settings: for microsomal CLint: liver microsomes, read-out: CLint (μL/min/mg) Rat
Experimental: (§1) 1: To the sample wells of T0, T5, T10, T20, T30, T60 and NCF60, 10 μL of the test or reference working solution and 80 μL of microsome working solution (hepatic microsome with a protein concentration of 0.5 mg/mL) were added, and to Blank60 well, only the microsome working solution was added. Then samples of the Blank60, T5, T10, T20, T30 and T60 other than TO and NCF60 were placed in a 37° C. water bath and pre-incubated for about 10 min.
(§2) 2: To the TO sample well, 300 μL of stop solution (containing 200 ng/mL tolbutamide and 200 ng/mL labetalol in acetonitrile solution) was added first, followed by 10 μL of NADPH regeneration system working solution.
(§3) 3: After the pre-incubation of Blank60, T5, T10, T20, T30 and T60 incubation plates, 10 μL of NADPH regeneration system working solution was added to each sample well to start the reaction, and 10 μL of 100 mM potassium phosphate buffer was added to the NCF60 sample well.
(§4) 4: After incubation for an appropriate time (such as 5, 10, 20, 30 and 60 min), to each test sample well and control well of the Blank60, T5, T10, T20, T30, T60 and NCF60 plates, 300 μL of stop solution was added to terminate the reaction.
(§5) 5: All sample plates were shaken to mix well and centrifuged at 4000 rpm for 20 min, and 100 μL of the supernatant of the test sample or control sample was taken and diluted with 300 μL of pure water for LC-MS/MS analysis.
(§6) 6: Data analysis: T1/2 and CLint(mic) (μL/min/mg) values were calculated according to the first-order elimination kinetics. The first-order elimination kinetics equation was: […]

[2] = Liver microsome metabolic stability test (human); type: in vitro ADME; settings: for microsomal CLint: liver microsomes, read-out: CLint (μL/min/mg) Human
Experimental: as §1, §2, §3, §4, §5, §6

[3] = Pharmacokinetic test, oral, SD rats; type: in vivo; settings: oral 10 mg/kg
Experimental: Each test compound was administered orally (10 mg/kg, 3 rats in each group) to SD rats for pharmacokinetic study. […] Animals were fasted overnight before oral administration, and fed again after 4 h of administration. […] At each collection time point, 3 whole blood samples were collected at a the collection volume of about 0.2-0.3 mL. […] The collected plasma was stored at −20° C. before analysis. 20 μL of plasma sample was added into a 1.6 mL 96-well deep-well plate, added with 200 μL of working internal standard solution (the same volume of vehicle was added to the blank instead of internal standard), vortexed for 1 min, and centrifuged at 5800 rpm for 10 min. 100 μL of the supernatant was added to a 96-well injection plate for LC-MS/MS analysis.

[4] = test system: TMD8 cell proliferation; experiment: In vitro cell proliferation inhibitory activity test (CTG), TMD8; type: cell-based; settings: Homo sapiens, TMD8, 72 h, TMD8 cells
Experimental: (§7) Test Example 4: In Vitro Cell Proliferation Inhibitory Activity Test
(§8) Cells were cultured in 1640 medium, added with 10% inactivated FBS and 1% double antibiotics, and cultured at 37° C. and 5% CO2.
(§9) (1) Cells were routinely cultured until the cell density was 80%-90%, and the cells were harvested when their number reached the requirement.
(§10) (2) Cells were resuspended with corresponding culture medium, counted, and prepared into cell suspension at appropriate density.
(§11) (3) The cell suspension was added to a 96-well plate, 100 μL per well.
(§12) (4) Cells were cultured overnight in a 37° C., 5% CO2 incubator.
(§13) (1) The compounds to be tested were diluted with DMSO to make a stock solution with a final concentration of 20 mM for later use.
(§14) (2) The stock solution was diluted 10 times from 20 mM to 2 mM with DMSO, and then diluted 3 times from 2 mM to 9 concentrations.
(§15) (3) The blank control wells were cells plus 0.5% DMSO, as high-reading control wells.
(§16) (4) Wells with no cells and only medium were used as low-reading control wells.
(§17) 4: Cell treatment with compound
(§18) (1) 24 h after the cells were plated, the compounds acted alone, and 99 μL of growth medium was added to each well, followed by 1 μL of the compound prepared in step 3. The plate was shaken gently to mix uniformly, and then placed in a 37° C., 5% CO2 incubator.
(§19) (2) The cell plate was placed in an incubator for 72 h.
(§20) 5: Detection by CTG method
(§21) (1) The cell plate to be tested was placed at room temperature for 30 min, and 100 μL of medium was discarded from each well.
(§22) (2) 100 μL of CTG reagent (CelltiterGlo kit) was added to each well, placed on a fast shaker for 2 min, and stood at room temperature in the dark for 30 min.
(§23) (3) The chemiluminescent signal value was read with the Envision instrument.
(§24) IC50 was calculated by using GraphPad Prism 8 software. The IC50 (half inhibitory concentration) of the compound was derived using the following nonlinear fitting formula, and the results are shown in the following table:
(§25) Y=Bottom+(Top−Bottom)/(1+10^((Log IC50−X)×HillSlope))
(§26) X: log value of compound concentration, Y: inhibition rate (% inhibition)
(§27) Inhibition rate (% inhibition)=(reading of high-reading control well-reading of compound well)/(reading of high-reading control well-reading of low-reading control well)×100

[5] = test system: DOHH2 cell proliferation; experiment: In vitro cell proliferation inhibitory activity test (CTG), DOHH2; type: cell-based; settings: Homo sapiens, DOHH-2
Experimental: as §7, §8, §9, §10, §11, §12, §13, §14, §15, §16, §17, §18, §19, §20, §21, §22, §23, §24, §25, §26, §27

[6] = test system: BT474 cell proliferation; experiment: In vitro cell proliferation inhibitory activity test (CTG), BT474; type: cell-based; settings: Homo sapiens, BT-474, BT474 cell proliferation
Experimental: as §7, §8, §9, §10, §11, §12, §13, §14, §15, §16, §17, §18, §19, §20, §21, §22, §23, §24, §25, §26, §27

Row | microsomal CLint [1] [µL/min/mg] | microsomal CLint [2] [µL/min/mg] | pIC50 [6] | Structure (SMILES) | pIC50 [4] | further results
1 |  |  |  | Nc1nccn2c([C@@H]3CC[C@H](CO)OC3)nc(-c3ccc(C(=O)Nc4ccccn4)cc3)c12 (single isomer, unassigned) [Example 2-A-P1] |  | CLint (μL/min/mg) Rat [1]: <9.6 µL/min/mg; % Remaining (60 min) Rat ([1]; 60 min): 95.5%; CLint (μL/min/mg) Human [2]: <9.6 µL/min/mg; % Remaining (60 min) Human ([2]; 60 min): 122.5%; AUC(0-∞) [3]: 77004 ng·h/mL
2 |  |  |  | COc1ccccc1C(=O)NCc1ccc(-c2nn(C3CCC(CO)OC3)c3ncnc(N)c23)cc1 (single isomer, unassigned) [Example 60-B] |  | Cl [3]: 188.82 mL/min/kg
3 |  |  |  | Nc1nccn2c(C3CCC(CO)OC3)nc(-c3ccc(C(=O)Nc4cc(C(F)(F)F)ccn4)cc3)c12 (single isomer, unassigned) [Example 109-P1] | 7.91 | 
4 | < 9.6 | < 9.6 |  | O=C(c1ccc(Oc2ccccc2)cc1Cl)c1c[nH]c2ncnc(N[C@@H]3CC[C@@H](CO)OC3)c12 [ARQ-531, reference compound] | 7.13 | pIC50 [5]: 6.76
5 | < 9.6 | < 9.6 |  | Nc1nccn2c(C34CCC(CO)(CC3)OC4)nc(-c3ccc(C(=O)Nc4ccccn4)cc3)c12 [Example 34] | 7.24 | 
6 | < 9.6 | < 9.6 |  | N#Cc1ccnc(NC(=O)c2ccc(-c3nc(C4CCC(CO)OC4)n4ccnc(N)c34)cc2)c1 (centres unmarked) [Example 103] | 7.60 | Cl [3]: 16.67 mL/min/kg
7 | 29.5 | 13.1 |  | Nc1nccn2c(C3CCC(CO)OC3)nc(-c3ccc(Cc4ccccc4)cc3)c12 (centres unmarked) [Example 106] | 7.31 | 
8 |  |  | 6.76 | Nc1nccn2c(C34CCC(CO)(CC3)OC4)nc(-c3ccc(C(F)(F)c4ccccc4)cc3F)c12 [Example 114] |  | 
9 |  |  |  | COc1cccc(Oc2ccc(-c3nc(C45CCC(CO)(CC4)OC5)n4ccnc(N)c34)c(F)c2)c1C#N [Example 115] | 8.21 | 
10 |  |  | 6.68 | COc1cccc(C(F)(F)c2ccc(-c3nc(C45CCC(CO)(CC4)OC5)n4ccnc(N)c34)cc2)c1F [Example 129] |  | 
11 |  |  | 6.68 | Cc1cccc(C(F)(F)c2ccc(-c3nc(C45CCC(CO)(CC4)OC5)n4ccnc(N)c34)cc2)c1F [Example 139] |  | 
12 |  |  | 6.30 | Nc1nccn2c(C34CCC(CO)(CC3)OC4)nc(-c3ccc(C(F)(F)c4ccc(F)c(Cl)c4)cc3)c12 [Example 140] |  | 
